Assay results as given in PubChem BioAssay (NCI).
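Values below derive from 48-hour exposures of cells grown in 96-well plates, with endpoints linearly interpolated between the two concentrations bracketing the appropriate inhibition level. Here, GI50 denotes the concentration required for 50% inhibition of growth. TGI denotes the concentration required for complete inhibition of growth.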

Key:
Assay in all cases: inhibition of tumour cell growth, NCI panel, 48 h
IGROV1 ovarian = test system: IGROV1 ovarian
ACHN renal = test system: ACHN renal
SK-MEL-28 melanoma = test system: SK-MEL-28 melanoma
CCRF-CEM leukemia = test system: CCRF-CEM leukemia
KM12 colon = test system: KM12 colon
M14 melanoma = test system: M14 melanoma
HL-60(TB) leukemia = test system: HL-60(TB) leukemia
HCT-116 colon = test system: HCT-116 colon
OVCAR-4 ovarian = test system: OVCAR-4 ovarian
BT-549 breast = test system: BT-549 breast

Compound	TGI (IGROV1 ovarian) [µM]	TGI (ACHN renal) [µM]	TGI (SK-MEL-28 melanoma) [µM]	TGI (CCRF-CEM leukemia) [µM]	TGI (KM12 colon) [µM]	TGI (M14 melanoma) [µM]	TGI (HL-60(TB) leukemia) [µM]	TGI (HCT-116 colon) [µM]	TGI (OVCAR-4 ovarian) [µM]	GI50 (IGROV1 ovarian) [µM]	GI50 (ACHN renal) [µM]	GI50 (SK-MEL-28 melanoma) [µM]	GI50 (CCRF-CEM leukemia) [µM]	GI50 (KM12 colon) [µM]	GI50 (M14 melanoma) [µM]	GI50 (HL-60(TB) leukemia) [µM]	GI50 (HCT-116 colon) [µM]	GI50 (OVCAR-4 ovarian) [µM]	GI50 (BT-549 breast) [µM]	TGI (BT-549 breast) [µM]
C[Si](C)(C)CN1C(=O)c2ccccc2C1(O)c1ccccc1 (configuration not stated)	> 100	> 100	> 100	> 100	> 100	> 100	> 100	> 100	> 100											
Cc1ccc(C)c(N2C(=O)C(=O)C(c3nc4ccccc4o3)/C(=N/N)C2=O)c1 (configuration not stated)	> 100	> 100	> 100	> 100	> 100	> 100	> 100	> 100	> 100											
CC1COS(=O)O1 (configuration not stated)	> 100	> 100	> 100	> 100	> 100	> 100	> 100	> 100	> 100											
CCOc1ccc(N=Cc2c3ccccc3nc3ccccc23)cc1	> 100	> 100	> 100	24	84.7	> 100	77.2		> 100											
O=C1c2ccc3c4ccccc4n(-c4ccccc4)c3c2C(=O)N1c1ccc(Cl)cc1	> 100	> 100		> 100	> 100	> 100	> 100	> 100	> 100											
NC(=O)CNc1ccc([As]=[As]c2ccc(NCC(N)=O)cc2)cc1 (configuration not stated)	23.8	30.3	17.6	73.6	33.2	20.6	9.26	16.3	49.7	3.37	11.6	4.01	0.706	13.7	5.02	1.75	3.64	2.61		
Nc1ccc(C2=N/C(=C\c3cccc(N)c3)C(=O)O2)cc1	> 100	> 100	> 100	> 100	> 100	> 100	> 100		> 100											
CCOC(=O)C1=C(Nc2ccc(Br)cc2)OCC1=O	> 100	> 100	> 100	> 100	> 100	> 100	33.9	> 100	> 100											
O=C1C2[C@@H](C(=O)N1c1ccc(Br)cc1)C13C(=CC2([N+](=O)[O-])[C@@H]2C(=O)N(c4ccc(Br)cc4)C(=O)[C@@H]21)c1ccccc1N3c1ccccc1 (some centres not stated)		> 100	> 100	> 100	> 100	> 100	> 100													
NCCN.O=C([O-])[O-].O=C([O-])[O-].[Co+3].[K+]	> 100	> 100	> 100	> 100	> 100	> 100	> 100	> 100	> 100	> 100	> 100	> 100	> 100	> 100	> 100	> 100	> 100	> 100		
Cc1ccc2[c](c1)[Sn]([c]1ccccc1)([c]1ccccc1)[c]1cc(C)ccc1N2C	> 100	> 100	> 100		> 100	> 100		> 100	> 100	58.7	66.8	64.5		29.8	80.5		20.9	41.6		
NC(=S)N/N=C1\CCCC\C1=C/c1ccccc1	71.5	> 100	> 100	> 100	> 100	> 100	4.74	> 100	> 100											
CSc1ccc2c(cc1=O)[C@@H](NC(=O)c1cc(O)c(O)c(O)c1)CCc1cc(O)c(O)c(O)c1-2		> 100	94.8	18.1	46.8	36.6	40.7	29.4	22.7											
CC1CCC(C(C)(C)c2ccccc2)C(=O)C1 (configuration not stated)	> 100	> 100		> 100	> 100	> 100	> 100	> 100	> 100											
CN(C)CCNc1nc2ccccc2c2c(=O)c3cc(F)ccc3sc12	2.99	3.01	3.23	5	3.56	3.55		3.08		1.53	1.65	1.79	2.22	1.93	1.9		1.58		3.52	> 100
C1=NC(N(Cc2ccccc2)Cc2ccccc2)N(Cc2ccccc2)N1 (configuration not stated)	33.6	57	37.2	> 100	31.1	23.1	> 100	21.3	36.7											
COc1cc(/C=N\O[Si](C)(C)C(C)(C)C)ccc1O[Si](C)(C)C(C)(C)C	> 100	> 100		> 100	> 100	> 100	> 100	> 100	> 100											
CCOC(=O)C(C)(c1c(C)[nH]c2ccccc12)c1c(C)[nH]c2ccccc12	51.3	56.6	30.5	58	33.2	29.8	37.6	25	32											
CC(=O)[CH-]C(=O)c1ccccc1.CC(=O)[CH-]C(=O)c1ccccc1.O=S(=O)([O-])c1cc([O-])c2c([O-])cc(S(=O)(=O)[O-])cc2c1.[Na+].[Ti+4]	> 100	> 100	> 100		> 100	> 100	> 100	> 100	> 100	> 100	> 100	> 100		30.2	> 100	> 100	> 100	68.6		
CCCCCCCCCCCCCCCCCCC1=C(O)C(=O)C=C(OC)C1=O	> 100	> 100	> 100		> 100	> 100	80.8	> 100	> 100											
